According to PMC1968247 (British Journal of Cancer, 1993):
“And” between values parts separate entries of the source, which are not always exact repeats. Equal entries are not always repeated. Where two headings read alike, the source gives them in different places.

What was measured:
[1] = tested on: P388 leukaemia; set-up: method as in Shealy et al., 1984; conditions: ref Shealy et al., 1984; cited from earlier work
[2] = In vitro stability in complete RPMI 1640 tissue culture medium; type: in vitro ADME; conditions: complete RPMI 1640 medium, 37 C, initial 10 ug/ml
Procedure: (§1) Br. J. Cancer (1993), 67, 441 446 t? […] Bibby Clinical Oncology Unit, University of Bradford, West Yorkshire, BD7 JDP, UK. […] In vivo anti-tumour activity was examined against three transplantable adenocarcinomas of the mouse colon and in vivo bone marrow toxicity was assessed using a spleen colony forming unit assay. The pharmacokinetic behaviour of the drug in vivo and drug stability in vitro was analysed by gas chromatography with electron capture detection. […] Clinical responses to cytotoxic agents have been largely restricted to the haematological malignancies while the majority of human solid tumours have remained refractory to chemotherapy (Marsoni et al., 1987). […] However, their clinical usefulness has been limited by non-selective host toxicity, particularly myelosuppres- sion. […] The assessment of stem cell survival has been recommended to study irreversible cytotoxic bone marrow injury (Schofield, 1986) and this can be performed readily in mice using a spleen colony forming unit assay. […] In vitro activity was assessed against a panel of established murine and human tumour cell lines while in vivo anti-tumour responses were evaluated against an ascitic tumour, MAC 15A, and two solid subcutaneous (sc) tumours, MAC 13 and MAC 26. […] Chemosensitivity testing In vitro chemosensitivity was assessed using a modified micro-tetrazolium (MTT) assay (Twenty- man & Luscombe, 1987).

[3] = tested on: MAC 15A; assay: In vitro chemosensitivity, MTT assay; type: cell-based, murine; conditions: area under decay curve of the IC50 over the MTT assay
Procedure: (§2) Br. J. Cancer (1993), 67, 441 446 t? […] Bibby Clinical Oncology Unit, University of Bradford, West Yorkshire, BD7 JDP, UK. […] In vivo anti-tumour activity was examined against three transplantable adenocarcinomas of the mouse colon and in vivo bone marrow toxicity was assessed using a spleen colony forming unit assay. The pharmacokinetic behaviour of the drug in vivo and drug stability in vitro was analysed by gas chromatography with electron capture detection. […] Clinical responses to cytotoxic agents have been largely restricted to the haematological malignancies while the majority of human solid tumours have remained refractory to chemotherapy (Marsoni et al., 1987). […] However, their clinical usefulness has been limited by non-selective host toxicity, particularly myelosuppres- sion. The chloroethylnitrosoureas decompose spontaneously in aqueous solution to generate reactive intermediates that are capable of alkylating and carbamoylating nucleophilic targets (Cheng et al., 1972). Alkylation reactions consist of chloroethylations and hydroxyethylations of DNA (Tong et al., 1982). Chloroethylation of 06-guanine with subsequent cross-link formation is considered to be the most important cytotoxic reaction (Lown et al., 1978) while hydroxyethyla- tion reactions are thought to be responsible for their mutagenic and carcinogenic effects (Pelfrene et al., 1976; Swenson et al., 1979). […] In the search for other types of compound that would chloroethylate DNA, a series of 2-haloethylsulphonates was synthesised (Shealy et al., 1983). […] Recently, the NCI has introduced a new disease-orientated screening programme based on the assessment of the in vitro cytotoxicity of a panel of cell lines representing the common clinical forms of human cancers using a colorimetric assay (Boyd, 1989). […] One reason for this discrepancy is that the in vitro tests ignore the potential role played by the pharmacokinetic behaviour and bioavailability of a drug in determining tumour responses in vivo. […] It has been used extensively as part of the pre-clinical evaluation of new anti-cancer agents within the Screening and Pharmacology Group of the EORTC (Bibby et al., 1988b). The feasibility of performing minimal toxicity studies in conjunction with anti-tumour studies has been described (Bibby et al., 1988b). […] Correspondence: A.M. Matthew. Received 6 December 1991; and in revised form 13 October 1992. Br. J. Cancer (1993), 67, 441-446 '?" Macmillan Press Ltd., 1993 442 A.M. MATIHEW et al. ethylating agents with improved therapeutic indices. The assessment of stem cell survival has been recommended to study irreversible cytotoxic bone marrow injury (Schofield, 1986) and this can be performed readily in mice using a spleen colony forming unit assay. […] In vitro activity was assessed against a panel of established murine and human tumour cell lines while in vivo anti-tumour responses were evaluated against an ascitic tumour, MAC 15A, and two solid subcutaneous (sc) tumours, MAC 13 and MAC 26. MAC 13 is relatively nitrosourea-sensitive due to a low level of the repair enzyme 06-alkylguanine-DNA alkyltransferase while MAC 26 is relatively nitrosourea-resistant due to a high repair enzyme level (Lunn et al., 1989). […] Chemosensitivity testing In vitro chemosensitivity was assessed using a modified micro-tetrazolium (MTT) assay (Twenty- man & Luscombe, 1987).

[4] = tested on: MAC 16; assay: In vitro chemosensitivity, MTT assay; type: cell-based, murine; conditions: area under decay curve of the IC50 over the MTT assay
Procedure: as §2

[5] = tested on: WEHI-3B; assay: In vitro chemosensitivity, MTT assay; type: cell-based, murine; conditions: area under decay curve of the IC50 over the MTT assay
Procedure: as §2

[6] = tested on: MAC 26; assay: In vitro chemosensitivity, MTT assay; type: cell-based, murine
Procedure: as §2

[7] = Maximum tolerated dose, full dose range to the point of toxicity; conditions: ip, mice
Procedure: as §1, with “sion. The chloroethylnitrosoureas decompose spontaneously in aqueous solution to generate reactive intermediates that are capable of alkylating and carbamoylating nucleophilic targets (Cheng et al., 1972). Alkylation reactions consist of chloroethylations and hydroxyethylations of DNA (Tong et al., 1982). Chloroethylation of 06-guanine with subsequent cross-link formation is considered to be the most important cytotoxic reaction (Lown et al., 1978) while hydroxyethyla- tion reactions are thought to be responsible for their mutagenic and carcinogenic effects (Pelfrene et al., 1976; Swenson et al., 1979).” for “sion.”

[8] = tested on: bone marrow; conditions: for Survival fraction: 24 h
Procedure: (§3) Br. J. Cancer (1993), 67, 441 446 t? […] Bibby Clinical Oncology Unit, University of Bradford, West Yorkshire, BD7 JDP, UK. […] In vivo anti-tumour activity was examined against three transplantable adenocarcinomas of the mouse colon and in vivo bone marrow toxicity was assessed using a spleen colony forming unit assay. The pharmacokinetic behaviour of the drug in vivo and drug stability in vitro was analysed by gas chromatography with electron capture detection. […] Clinical responses to cytotoxic agents have been largely restricted to the haematological malignancies while the majority of human solid tumours have remained refractory to chemotherapy (Marsoni et al., 1987). […] However, their clinical usefulness has been limited by non-selective host toxicity, particularly myelosuppres- sion. The chloroethylnitrosoureas decompose spontaneously in aqueous solution to generate reactive intermediates that are capable of alkylating and carbamoylating nucleophilic targets (Cheng et al., 1972). Alkylation reactions consist of chloroethylations and hydroxyethylations of DNA (Tong et al., 1982). Chloroethylation of 06-guanine with subsequent cross-link formation is considered to be the most important cytotoxic reaction (Lown et al., 1978) while hydroxyethyla- tion reactions are thought to be responsible for their mutagenic and carcinogenic effects (Pelfrene et al., 1976; Swenson et al., 1979). […] In the search for other types of compound that would chloroethylate DNA, a series of 2-haloethylsulphonates was synthesised (Shealy et al., 1983). […] Recently, the NCI has introduced a new disease-orientated screening programme based on the assessment of the in vitro cytotoxicity of a panel of cell lines representing the common clinical forms of human cancers using a colorimetric assay (Boyd, 1989). […] One reason for this discrepancy is that the in vitro tests ignore the potential role played by the pharmacokinetic behaviour and bioavailability of a drug in determining tumour responses in vivo. […] It has been used extensively as part of the pre-clinical evaluation of new anti-cancer agents within the Screening and Pharmacology Group of the EORTC (Bibby et al., 1988b). The feasibility of performing minimal toxicity studies in conjunction with anti-tumour studies has been described (Bibby et al., 1988b). […] Correspondence: A.M. Matthew. Received 6 December 1991; and in revised form 13 October 1992. Br. J. Cancer (1993), 67, 441-446 '?" Macmillan Press Ltd., 1993 442 A.M. MATIHEW et al. ethylating agents with improved therapeutic indices. The assessment of stem cell survival has been recommended to study irreversible cytotoxic bone marrow injury (Schofield, 1986) and this can be performed readily in mice using a spleen colony forming unit assay. […] In vitro activity was assessed against a panel of established murine and human tumour cell lines while in vivo anti-tumour responses were evaluated against an ascitic tumour, MAC 15A, and two solid subcutaneous (sc) tumours, MAC 13 and MAC 26. MAC 13 is relatively nitrosourea-sensitive due to a low level of the repair enzyme 06-alkylguanine-DNA alkyltransferase while MAC 26 is relatively nitrosourea-resistant due to a high repair enzyme level (Lunn et al., 1989). In vivo bone marrow toxicity and pharmacokinetic studies and in vitro drug stability studies were performed in conjunction with the anti-tumour studies. […] Chlorozotocin was dissolved in 10% dimethylsulphoxide (DMSO)/arachis oil. Drug solutions were prepared at an appropriate concentration for the desired in vivo dose to be administered in 0.1 ml per 10 g body weight by intra- peritoneal (ip) or intravenous (iv) injection and for the desired final concentration in vitro to be achieved upon a 1 in 10 dilution. […] Chemosensitivity testing In vitro chemosensitivity was assessed using a modified micro-tetrazolium (MTT) assay (Twenty- man & Luscombe, 1987).

[9] = tested on: MAC 26 tumours; conditions: for Tumour growth delay: MAC 26; for Survivors: MAC 26 bearers
Procedure: as §3

[10] = tested on: MAC 15A ascites tumour; assay: Anti-tumour activity against MAC 15A (median survival time); type: in vivo, NMRI mice
Procedure: as §3

[11] = tested on: K562; assay: In vitro chemosensitivity, MTT assay; type: cell-based, human; conditions: area under decay curve of the IC50 over the MTT assay
Procedure: as §3

[12] = tested on: HT-29; assay: In vitro chemosensitivity, MTT assay; type: cell-based, human
Procedure: as §3

[13] = tested on: HCLO; assay: In vitro chemosensitivity, MTT assay; type: cell-based, human; conditions: area under decay curve of the IC50 over the MTT assay
Procedure: as §3

[14] = tested on: DLD-1; assay: In vitro chemosensitivity, MTT assay; type: cell-based, human
Procedure: as §3

[15] = tested on: HRT-18; assay: In vitro chemosensitivity, MTT assay; type: cell-based, human
Procedure: as §3

[16] = tested on: HCT-18; assay: In vitro chemosensitivity, MTT assay; type: cell-based, human
Procedure: as §3

[17] = Pharmacokinetic study, plasma Clomesone by gas chromatography; conditions: 50 mg kg-1 ip
Procedure: as §3

[18] = set-up: method as in Chan & Barrientos, 1988; conditions: previously reported; ref Chan & Barrientos, 1988; cited from earlier work
[19] = tested on: MAC 13 tumours; assay: Anti-tumour activity against MAC 13 (tumour weight); type: in vivo, NMRI mice
Procedure: as §3

[20] = area under decay curve of the IC50 over the MTT assay

CS(=O)(=O)CS(=O)(=O)OCCCl [Clomesone, 2-chloroethyl(methylsulphonyl)methanesulphonate]
Activity against P388 leukaemia in vivo (in words) [1]: highly effective | 1st order rate constant (k) of degradation [2]: 0.205 | t1/2 in tissue culture medium [2]: 203 min | c x t (concentration-time product) [3]: 54 fig h ml- ' | c x t (concentration-time product) [4]: 177 fig h ml- ' | c x t (concentration-time product) [5]: 150 fig h ml- ' | IC50 ([6]; MTT, 4 days, one experiment only): 35 igm9l-' | c x t (concentration-time product) [6, 20]: 185 fig h ml- ' | Maximum tolerated dose [7]: 100 mg kg-' | Survival fraction ([8]; 25 mg kg-1 ip): 0.80 | Survival fraction ([8]; 50 mg kg-1 ip): 0.59 | Survival fraction ([8]; 100 mg kg-1 ip, colonies observed vs expected): 0.20 and 0.16 | reduction in colony forming units ([8]; maximum tolerated dose of 100 mg kg-1 ip): 5 fold | Tumour growth delay ([9]; 25 mg kg-1 ip): 0 days | Tumour growth delay ([9]; 50 mg kg-1 ip): 0.8 days | Tumour growth delay ([9]; 100 mg kg-1 ip): 0.8 days | Survivors ([9]; 25 mg kg-1 ip): 10/10 | Survivors ([9]; 50 mg kg-1 ip): 10/10 | Survivors ([9]; 100 mg kg-1 ip): 10/10 | Survivors ([9]; 150 mg kg-1 ip): 0/10 | Survivors ([9]; 200 mg kg-1 ip): 0/10 | T/C% ([10]; 12.5 mg kg-1 ip): 88% | T/C% ([10]; 12.5 mg kg-1 iv): 100% | T/C% ([10]; 25 mg kg-1 ip): 138% | T/C% ([10]; 25 mg kg-1 iv): 100% | T/C% ([10]; 50 mg kg-1 ip): 163% | T/C% ([10]; 50 mg kg-1 iv): 125% | T/C% ([10]; 100 mg kg-1 ip, median survival time treated/control): 133% and 163% | c x t (concentration-time product) [11]: 207 fig h ml- ' | IC50 ([12]; MTT, 4 days, n = 4): > 100 igm9l-' | c x t (concentration-time product) [12, 20]: > 528 fig h ml- ' | c x t (concentration-time product) [13]: 146 fig h ml- ' | IC50 ([14]; MTT, 4 days, n = 4): > 100 igm9l-' | c x t (concentration-time product) [14, 20]: > 528 fig h ml- ' | IC50 ([15]; MTT, 4 days, n = 4): > 100 igm9l-' | c x t (concentration-time product) [15, 20]: > 528 fig h ml- ' | IC50 ([16]; MTT, 4 days, n = 4): > 100 igm9l-' | c x t (concentration-time product) [16, 20]: > 528 fig h ml- ' | Time to peak plasma levels [17]: ≤ 2 min | area under the plasma concentration versus time curve, mean value [17]: 6.77 .ghmlh' | areas under the plasma concentration versus time curves, range [17]: 5.70-8.04 lagh ml-' | Peak plasma levels, mean value ([17]; female non-tumour bearing mice, three experiments): 28.0 ggmlh' | mean terminal half-life ([17]; plasma): 8.1 min | terminal half-life, range ([17]; plasma): 4.8 to 10.8 min | Peak plasma levels, range ([17]; three experiments): 18.1-35.9 jigml-' | t1/2 in mouse plasma [18]: 51 min | % Tumour weight inhibition ([19]; 12.5 mg kg-1 ip): 21.6% | % Tumour weight inhibition ([19]; 12.5 mg kg-1 iv): 45.9% | % Tumour weight inhibition ([19]; 25 mg kg-1 ip): 13.5% | % Tumour weight inhibition ([19]; 25 mg kg-1 iv): 21.6% | % Tumour weight inhibition ([19]; 50 mg kg-1 iv): 47.3% | % Tumour weight inhibition ([19]; 100 mg kg-1 ip, assessed 17 days later): 48.3%
